Consider seven molecules from ChEMBL document CHEMBL3227947, “Quantitative structure-activity relationship of 5-(X-benzyl)-2,4-diaminopyrimidines inhibiting bovine liver dihydrofolate reductase” (J Med Chem, 1979).

The test concerns the target T1, Dihydrofolate reductase (Bos taurus) (UniProt P00376).
T1 sequence (whole entry): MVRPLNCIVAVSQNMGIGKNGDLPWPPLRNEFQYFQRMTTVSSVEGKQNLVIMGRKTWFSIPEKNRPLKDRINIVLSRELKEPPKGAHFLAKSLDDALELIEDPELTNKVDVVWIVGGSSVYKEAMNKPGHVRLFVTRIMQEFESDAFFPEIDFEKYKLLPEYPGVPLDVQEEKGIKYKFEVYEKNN
Description: Inhibition of bovine liver dihydrofolate reductase using dihydrofolic acid as substrate
Regarding `Nc1ccc(Cc2cnc(N)nc2N)cc1`, the log(1/I50) amounted to 4.57.
`Cc1ccc(Cc2cnc(N)nc2N)cc1` gave a log(1/I50) of 4.8.
`COc1ccc(Cc2cnc(N)nc2N)cc1OC` displayed a log(1/I50) of 5.15.
As for `COc1cccc(Cc2cnc(N)nc2N)c1`, the log(1/I50) amounted to 5.02.
The molecule `CC(=O)Nc1ccc(Cc2cnc(N)nc2N)cc1[N+](=O)[O-]` yielded a log(1/I50) of 5.16.
Regarding `Nc1ncc(Cc2cccc(C(F)(F)F)c2)c(N)n1`, the log(1/I50) was determined as 5.53.
Consider `Nc1ncc(Cc2ccc(OC(F)(F)F)cc2)c(N)n1`, for which the log(1/I50) came to 4.99.
